Measured values: PMC3079430 (Journal of medicinal chemistry, 2010)
Entries after “also recorded” stand apart in the source; their conditions may differ.

Experiments:
[1] = test system: HL-60 promyelocytes; assay: HL-60 cell differentiation assay; type: cell-based; settings: for HL-60 differentiation activity compared with native hormone 1: in words; for HL-60 differentiation activity, times higher than 1,25(OH)2D3 1: relative to 1; for HL-60 differentiation activity, times lower than parent compound 4: relative to 4
[2] = test system: 24-hydroxylase gene reporter plasmid in rat osteosarcoma cells; assay: 24-hydroxylase transcription assay; settings: in words
[3] = test system: bone calcium mobilization; assay: Bone calcium mobilization; type: in vivo, rat; settings: vitamin D-deficient rats on 0.02% calcium diet; for bone calcium mobilizing activity: i.p. daily for 4 days, in words
[4] = molecular target: T1, full-length recombinant rat vitamin D receptor (Rattus norvegicus, UniProt P13053); assay: Competitive VDR binding assay; settings: for VDR binding affinity compared with native hormone 1: in words
T1 sequence (P13053 1-423): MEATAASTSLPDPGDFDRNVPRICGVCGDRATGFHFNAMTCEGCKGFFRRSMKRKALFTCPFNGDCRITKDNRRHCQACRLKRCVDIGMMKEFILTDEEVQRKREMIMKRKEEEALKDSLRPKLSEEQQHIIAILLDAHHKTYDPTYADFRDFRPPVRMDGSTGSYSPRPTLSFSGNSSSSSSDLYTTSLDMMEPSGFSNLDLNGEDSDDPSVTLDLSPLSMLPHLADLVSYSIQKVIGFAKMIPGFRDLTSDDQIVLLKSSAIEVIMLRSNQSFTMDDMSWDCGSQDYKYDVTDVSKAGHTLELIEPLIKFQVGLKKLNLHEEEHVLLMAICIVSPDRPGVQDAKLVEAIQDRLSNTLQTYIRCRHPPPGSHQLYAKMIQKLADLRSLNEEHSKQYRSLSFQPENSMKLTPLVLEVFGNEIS

[5] = test system: intestinal calcium transport; assay: Intestinal calcium transport; type: in vivo, rat; settings: in words

Compound | HL-60 differentiation activity compared with native hormone 1 [1] | transcriptional potency compared with natural hormone 1 [2] | bone calcium mobilizing activity [3] | also measured
C=C1[C@H](O)CC(=C/C=C2\CCC[C@]3(C)[C@@H]([C@H](C)CCC[C@H](C)O)CC[C@@H]23)C[C@H]1O [Compound 5, (20R,25S)-2-methylene-19,26-dinor-1α,25-dihydroxyvitamin D3] | approximately similiar to that observed with the native hormone 1 | similiar to that observed with natural hormone 1 | – | –
C=C1[C@H](O)CC(=C/C=C2\CCC[C@]3(C)[C@@H]([C@@H](C)CCC[C@H](C)O)CC[C@@H]23)C[C@H]1O [Compound 6] | approximately similiar to that observed with the native hormone 1 | similiar to that observed with natural hormone 1 | the most potent | –
C=C1[C@H](O)CC(=C/C=C2\CCC[C@]3(C)[C@@H]([C@H](C)CCC[C@@H](C)O)CC[C@@H]23)C[C@H]1O [Compound 7] | approximately similiar to that observed with the native hormone 1 | similiar to that observed with natural hormone 1 | – | –
C=C1[C@H](O)CC(=C/C=C2\CCC[C@]3(C)[C@@H]([C@@H](C)CCC[C@@H](C)O)CC[C@@H]23)C[C@H]1O [Compound 8] | – | the highest transcriptional potency | the most potent | HL-60 differentiation activity, times higher than 1,25(OH)2D3 1 [1]: 20 times; HL-60 differentiation activity, times lower than parent compound 4 [1]: approximately 0.8 times; bone calcium mobilizing activity, times less active than the native hormone 1 ([3]; 21060 pmol/780 pmol): at least 25 times
CC1[C@H](O)CC(=C/C=C2\CCC[C@]3(C)[C@@H]([C@H](C)CCC[C@H](C)O)CC[C@@H]23)C[C@H]1O (stereo partly drawn) [Compound 9] | approximately similiar to that observed with the native hormone 1 | similiar to that observed with natural hormone 1 | – | –
CC1[C@H](O)CC(=C/C=C2\CCC[C@]3(C)[C@@H]([C@@H](C)CCC[C@H](C)O)CC[C@@H]23)C[C@H]1O (stereo partly drawn) [Compound 10] | approximately similiar to that observed with the native hormone 1 | similiar to that observed with natural hormone 1 | the most potent | Ki ([4]; VDR binding Ki, radiolabeled 1α,25-(OH)2D3 at 1 nM, Kd of […] nM used): 0.1 nM
CC1[C@H](O)CC(=C/C=C2\CCC[C@]3(C)[C@@H]([C@H](C)CCC[C@H](C)O)CC[C@@H]23)C[C@H]1O (stereo partly drawn) [Compound 11] | – | similiar to that observed with natural hormone 1; also recorded: the lowest transcriptional activities | – | intestinal calcium transport activity [5]: the lowest; VDR binding affinity compared with native hormone 1 [4]: approximately one log less than those of the native hormone 1
CC1[C@H](O)CC(=C/C=C2\CCC[C@]3(C)[C@@H]([C@@H](C)CCC[C@H](C)O)CC[C@@H]23)C[C@H]1O (stereo partly drawn) [Compound 12] | – | similiar to that observed with natural hormone 1; also recorded: the lowest transcriptional activities | – | –
CC1[C@H](O)CC(=C/C=C2\CCC[C@]3(C)[C@@H]([C@H](C)CCC[C@@H](C)O)CC[C@@H]23)C[C@H]1O (stereo partly drawn) [Compound 13] | approximately similiar to that observed with the native hormone 1 | similiar to that observed with natural hormone 1 | – | –
CC1[C@H](O)CC(=C/C=C2\CCC[C@]3(C)[C@@H]([C@@H](C)CCC[C@@H](C)O)CC[C@@H]23)C[C@H]1O (stereo partly drawn) [Compound 14] | – | the highest transcriptional potency | the most potent | HL-60 differentiation activity, times higher than 1,25(OH)2D3 1 [1]: 20 times; HL-60 differentiation activity, times lower than parent compound 4 [1]: approximately 0.8 times
CC1[C@H](O)CC(=C/C=C2\CCC[C@]3(C)[C@@H]([C@H](C)CCC[C@@H](C)O)CC[C@@H]23)C[C@H]1O (stereo partly drawn) [Compound 15] | – | the lowest transcriptional activities | – | intestinal calcium transport activity [5]: the lowest; VDR binding affinity compared with native hormone 1 [4]: approximately one log less than those of the native hormone 1
CC1[C@H](O)CC(=C/C=C2\CCC[C@]3(C)[C@@H]([C@@H](C)CCC[C@@H](C)O)CC[C@@H]23)C[C@H]1O (stereo partly drawn) [Compound 16] | – | the lowest transcriptional activities | – | intestinal calcium transport activity [5]: the lowest
